The nature of data set [1]: Agonist activity at human-mouse chimeric GPR119 expressed in tetracycline-induced Flp-In-T-Rex-HEK293 cells assessed as accumulation of cAMP after 50 mins by HTRF assay. The class given is cell-based. To be noted: HEK293, 50 min. For orientation: In TR-FRET formats the signal depends on donor and acceptor labels being close together.
The test system of data set [2] is Mus musculus. Put plainly: Antidiabetic activity in C57BL/6J mouse assessed as reduction in plasma glucose level at 0.03 mg/kg, po administered for 60 mins followed by glucose challenge measured for 30 to 120 mins by OGTT relative to vehicle-treated control. The class given is functional. On the set-up: scale not given: the % may be the effect or the level left.

Data set [3] is described as follows: Half life in human liver microsomes at 50 uM preincubated for 5 mins followed by NADPH addition by LC/MS-MS analysis. The class given is ADME.
Data set [4] relates to Mus musculus. Nature of the data set: Antidiabetic activity in C57BL/6J mouse assessed as reduction in plasma glucose level at 0.1 mg/kg, po administered for 60 mins followed by glucose challenge measured for 30 to 120 mins by OGTT relative to vehicle-treated control. The class given is functional. On the set-up: scale not given: the % may be the effect or the level left.

By EC50 is commonly meant the concentration at which the effect is half-maximal. What is called half-life is the time in which the quantity being followed falls by half. Consider `Cc1nc(-n2cc(Cl)c(OC3CCN(c4ncc(Cl)cn4)CC3)cc2=O)ccc1N1CCC(O)C1=O` (configuration not stated), for which the EC50 in data set [1] came out at 2 nM. Moreover, in the data set with Mus musculus [2], the Activity was 36%. The half-life at 50 µM in data set [3] was determined as 1.57 h.

Take `Cc1nc(-n2cc(Cl)c(OC3CCN(c4ncc(Cl)cn4)CC3)cc2=O)ccc1N1CC[C@H](O)C1=O`: in data set [1], the EC50 was 4 nM. The Activity in the data set with Mus musculus [2] came to 26%. For the same compound, the half-life at 50 µM in data set [3] is 1.3 h.

As to `Cc1nc(-n2ccc(OC3CCN(c4ncc(Cl)cn4)CC3)cc2=O)ccc1N1CCC(O)C1=O` (configuration not stated), in data set [1], the EC50 amounted to 10 nM. The half-life at 50 µM in data set [3] came out at 1.68 h.

Turning to `CCCc1cnc(N2CCC(Oc3cc(=O)n(-c4ccc(N5CCC(O)C5=O)c(C)n4)cc3Cl)CC2)nc1` (configuration not stated), the EC50 in data set [1] was determined as 4 nM. Moreover, in the data set on Mus musculus [2], the Activity was 19%. The half-life at 50 µM in data set [3] came out at 2 h.

As for `CCCc1cnc(N2CCC(Oc3ccn(-c4ccc(N5CCC(O)C5=O)c(C)n4)c(=O)c3)CC2)nc1` (configuration not stated), the Activity in the data set with Mus musculus [4] is recorded as 21%. Besides, the EC50 in data set [1] came out at 16 nM. In data set [3], this compound showed a half-life at 50 µM of 1.27 h.

Consider `Cc1nc(-n2cc(Cl)c(OC3CCN(c4ncc(Cl)cn4)CC3)cc2=O)ccc1N1CC[C@@H](O)C1=O`, for which the EC50 in data set [1] is 3 nM. Besides, the Activity in the data set with Mus musculus [2] was found to be 39%. The compound also showed a half-life at 50 µM in data set [3] of 1.62 h.

The record behind these values is ChEMBL document CHEMBL3286211, “Pyrimidinylpiperdinyloxypyridone Analogues as GPR119 Modulators” (ACS Med Chem Lett, 2014).
